Data published in patent US9328106B2, “Cyclic ether pyrazol-4-yl-heterocyclyl-carboxamide compounds and methods of use” (Genentech, Inc., priority 2012, dated 2016).
Read-outs that look alike come from different tables or passages of the source.

Tests used:
BaF3 PIM1 cells = test: In vitro cell proliferation, BaF3 transfected with PIM1; assay type: cell-based, murine;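 note: murine IL-3-dependent pro-B BaF3 cells transfected with PIM1, compound exposure overnight at 37 °C under 5% CO2, viability read as luminescence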
Description: BaF3 parental line was obtained from the DSMZ repository. […] Media for BaF3 parental line contained RPMI, 10% FBS, 2 mM L-Glutamine, 2 ng/mL mIL-3. Media for BaF3 PIM1 & 2 lines contained RPMI, 10% FBS, 2 mM L-Glutamine, 250 μg/mL. Media for MM1.S (multiple myeloma cells) line contained RPMI, 10% FBS, 2 mM L-Glutamine.
BaF3, a murine interleukin-3 dependent pro-B cell line, parental cells, BaF3 PIM1 cells, BaF3 PIM2 cells, and MM1.S (multiple myeloma) cells were seeded at 2 k/well, 5 k/well, 5 k/well, and 10 k/well respectively, in a 384-well plate, at 45 μL/well. Test compound was added at 5 μL/well. BaF3 cells (parental and transfected) were incubated overnight, while MM1.S cells were incubated for 72 hours at 37° C., 5% CO2. CELL TITER GLO® Reagent (Promega) was added at 50 μL/well, the plates were incubated for 30 minutes, and their luminescence read on an HT Analyst. IC50/EC50 values for the test compound were calculated.

[1] = tested on: MM1.S (multiple myeloma) cells; test: In vitro cell proliferation, MM1.S multiple myeloma cells; assay type: cell-based; settings: read-out: Prolif MM1S ATP (EC50);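 note: cells cultured in RPMI with 10% FBS and 2 mM L-Glutamine, seeded in 384-well plates, exposed to compound, cell viability measured by luminescence after CellTiter-Glo addition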
PIM1 = PIM1 (Homo sapiens (Human), UniProt P11309); test: biochemical; assay type: biochemical; settings: 20 pM PIM1, 1 μM FAM-peptide, 10 μM ATP, 90 minutes at room temperature; read-out: PIM1 LC3K (KI)
BaF3 parental cells = test: In vitro cell proliferation, BaF3 parental line + IL3; assay type: cell-based, murine; settings: Mus musculus;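 note: BaF3 parental cells are murine IL-3 dependent pro-B cells grown with 2 ng/mL mIL-3, 384-well format, viability read by luminescence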
[2] = Mus musculus, BaF3, read-out: Prolif BaF3 PIM1 (IC50), BaF3 PIM1 cells, incubated overnight, CELL TITER GLO
[3] = Homo sapiens, MM1.S, 72 h, MM1.S cells, 72 hours, CELL TITER GLO
[4] = BaF3, BaF3 parental, mIL-3, incubated overnight, CELL TITER GLO, read-out: Prolif BaF3 IL3 (IC50)
[5] = Mus musculus, BaF3 PIM1 cells, incubated overnight, CELL TITER GLO, read-out: Prolif BaF3 PIM1 (IC50)

Chain of PIM1 (P11309 whole entry): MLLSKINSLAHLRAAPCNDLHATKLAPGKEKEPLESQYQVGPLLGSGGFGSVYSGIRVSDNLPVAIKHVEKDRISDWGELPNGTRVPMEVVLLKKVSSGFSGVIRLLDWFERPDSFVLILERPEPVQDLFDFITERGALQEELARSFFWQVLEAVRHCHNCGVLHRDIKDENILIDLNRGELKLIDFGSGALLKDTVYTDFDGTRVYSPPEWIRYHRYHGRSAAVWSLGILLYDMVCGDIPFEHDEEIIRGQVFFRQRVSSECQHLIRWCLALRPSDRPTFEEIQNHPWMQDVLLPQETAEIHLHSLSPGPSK

Cn1ncc(NC(=O)c2csc(-c3ccccc3)n2)c1[C@@H]1CC[C@@H](N)[C@H](F)CO1 [Example 327, N-(5-((2S,5R,6S)-5-amino-6-fluorooxepan-2-yl)-1-methyl-1H-pyrazol-4-yl)-2-phenylthiazole-4-carboxamide]
IC50 (BaF3 PIM1 cells; [2]): 176 nM | EC50 [1, 3]: 648 nM | Ki (PIM1): 0.021 nM | IC50 (BaF3 parental cells; [4]): 16800 nM

COc1cccc(-c2nc(C(=O)Nc3cnn(C)c3[C@@H]3CC[C@@H](N)[C@H](F)CO3)cs2)c1F [Example 362, N-(5-((2S,5R,6S)-5-amino-6-fluorooxepan-2-yl)-1-methyl-1H-pyrazol-4-yl)-2-(2-fluoro-3-methoxyphenyl)thiazole-4-carboxamide]
IC50 (BaF3 PIM1 cells; [2]): 50.7 nM | EC50 [1, 3]: 336 nM | Ki (PIM1): 0.036 nM | IC50 (BaF3 parental cells; [4]): 3100 nM

Cn1ncc(NC(=O)c2nc(-c3c(F)cccc3F)sc2N)c1C12CCC(O)C(CC1)O2 (single isomer, unassigned) [Example 109, 5-amino-2-(2,6-difluorophenyl)-N-[5-(2-hydroxy-8-oxabicyclo[3.2.1]octan-5-yl)-1-methyl-pyrazol-4-yl]thiazole-4-carboxamide]
IC50 (BaF3 PIM1 cells; read-out: Prolif BaF3 PIM1 (IC50), BaF3 PIM1 cells, incubated overnight, CELL TITER GLO): 115 nM | EC50 ([1]; MM1.S cells, 72 hours, CELL TITER GLO): 9200 nM | Ki (PIM1): 0.034 nM | IC50 (BaF3 parental cells; [4]): 8300 nM

Cn1ncc(NC(=O)c2csc(-c3cc[nH]n3)n2)c1[C@@H]1CC[C@@H](N)[C@H](F)CO1 [Example 379, N-[5-[(2S,5R,6S)-5-amino-6-fluoro-oxepan-2-yl]-1-methyl-pyrazol-4-yl]-2-(1H-pyrazol-3-yl)thiazole-4-carboxamide]
IC50 (BaF3 PIM1 cells; [2]): 980 nM | EC50 [1, 3]: 2900 nM | Ki (PIM1): 0.129 nM | IC50 (BaF3 parental cells; [4]): > 25000 nM

Cn1ncc(NC(=O)c2nc(-c3c(F)cccc3Cl)sc2N)c1[C@@H]1CC[C@@H](N)[C@H](F)CO1 [Example 328, 5-amino-N-(5-((2S,5R,6S)-5-amino-6-fluorooxepan-2-yl)-1-methyl-1H-pyrazol-4-yl)-2-(2-chloro-6-fluorophenyl)thiazole-4-carboxamide]
IC50 (BaF3 PIM1 cells; [2]): 21.4 nM | EC50 [1, 3]: 1500 nM | Ki (PIM1): 0.036 nM | IC50 (BaF3 parental cells; [4]): 12500 nM

Cc1sc(-c2c(F)cccc2F)nc1C(=O)Nc1cnn(C)c1[C@@H]1CC[C@@H](N)[C@H](F)CO1 [Example 370, N-[5-[(2S,5R,6S)-5-amino-6-fluoro-oxepan-2-yl]-1-methyl-pyrazol-4-yl]-2-(2,6-difluorophenyl)-5-methyl-thiazole-4-carboxamide]
IC50 (BaF3 PIM1 cells; [2]): 675 nM | EC50 [1, 3]: 1800 nM | Ki (PIM1): 0.382 nM | IC50 (BaF3 parental cells; [4]): 6400 nM

Cn1ncc(NC(=O)c2csc(-c3c(F)cccc3F)n2)c1[C@H]1CC[C@H](N)[C@H](O)CO1 [Example 351, N-(5-((2R,5S,6S)-5-amino-6-hydroxyoxepan-2-yl)-1-methyl-1H-pyrazol-4-yl)-2-(2,6-difluorophenyl)thiazole-4-carboxamide]
IC50 (BaF3 PIM1 cells; [2]): 621 nM | EC50 [1, 3]: 520 nM | Ki (PIM1): 0.076 nM | IC50 (BaF3 parental cells; [4]): 9900 nM

CO[C@@H]1COC(c2c(NC(=O)c3nc(-c4c(F)cccc4F)sc3N)cnn2C)CC[C@H]1N (stereo partly drawn) [Example 126, 5-amino-N-(5-((5R,6S)-5-amino-6-methoxyoxepan-2-yl)-1-methyl-1H-pyrazol-4-yl)-2-(2,6-difluorophenyl)thiazole-4-carboxamide]
IC50 (BaF3 PIM1 cells; [2]): 25.2 nM | EC50 ([1]; Homo sapiens, MM1.S, 72 h): 21.7 nM | Ki (PIM1): 0.026 nM | IC50 (BaF3 parental cells; BaF3, read-out: Prolif BaF3 IL3 (IC50)): 25000 nM

COc1ccc(F)c(-c2nc(C(=O)Nc3cnn(C)c3[C@@H]3CC[C@@H](N)[C@H](F)CO3)cs2)c1 [Example 356, N-(5-((2S,5R,6S)-5-amino-6-fluorooxepan-2-yl)-1-methyl-1H-pyrazol-4-yl)-2-(2-fluoro-5-methoxyphenyl)thiazole-4-carboxamide]
IC50 (BaF3 PIM1 cells; [2]): 108 nM | EC50 [1, 3]: 1400 nM | Ki (PIM1): 0.053 nM | IC50 (BaF3 parental cells; [4]): 6500 nM

Cn1ncc(NC(=O)c2csc(-c3c(F)cc([C@@H]4CCCO4)cc3F)n2)c1[C@@H]1CC[C@@H](N)[C@H](F)CO1 (single isomer, unassigned) [Example 371]
IC50 (BaF3 PIM1 cells; [2]): 151 nM | EC50 [1, 3]: 4400 nM | Ki (PIM1): 0.057 nM | IC50 (BaF3 parental cells; [4]): > 25000 nM

Cn1ncc(NC(=O)c2csc(-c3n[nH]c4ccccc34)n2)c1[C@@H]1CC[C@@H](N)[C@H](F)CO1 [Example 381, N-(5-((2S,5R,6S)-5-amino-6-fluorooxepan-2-yl)-1-methyl-1H-pyrazol-4-yl)-2-(1H-indazol-3-yl)thiazole-4-carboxamide]
IC50 (BaF3 PIM1 cells; [2]): 79.4 nM | EC50 [1, 3]: 640 nM | Ki (PIM1): 0.022 nM | IC50 (BaF3 parental cells; [4]): 5800 nM

Cn1ncc(NC(=O)c2csc(-c3c(F)cc(F)cc3F)n2)c1[C@@H]1CC[C@@H](N)[C@H](F)CO1 [Example 364, N-(5-((2S,5R,6S)-5-amino-6-fluorooxepan-2-yl)-1-methyl-1H-pyrazol-4-yl)-2-(2,4,6-trifluorophenyl)thiazole-4-carboxamide]
IC50 (BaF3 PIM1 cells; [2]): 208 nM | EC50 [1, 3]: 1100 nM | Ki (PIM1): 0.039 nM | IC50 (BaF3 parental cells; [4]): 20200 nM

C[C@H](O)c1ccc(-c2nc(C(=O)Nc3cnn(C)c3[C@@H]3CC[C@@H](N)[C@H](F)CO3)cs2)c(F)c1F (single isomer, unassigned) [Example 365]
IC50 (BaF3 PIM1 cells; [2]): 408 nM | EC50 [1, 3]: 348 nM | Ki (PIM1): 0.069 nM | IC50 (BaF3 parental cells; [4]): 15900 nM

Cc1nn(C)c(F)c1-c1nc(C(=O)Nc2cnn(C)c2[C@@H]2CC[C@@H](N)[C@H](F)CO2)cs1 [Example 286, N-(5-((2S,5R,6S)-5-amino-6-fluorooxepan-2-yl)-1-methyl-1H-pyrazol-4-yl)-2-(5-fluoro-1,3-dimethyl-1H-pyrazol-4-yl)thiazole-4-carboxamide]
IC50 (BaF3 PIM1 cells; [5]): 947 nM | EC50 [1, 3]: 12600 nM | IC50 (BaF3 parental cells; [4]): 11300 nM

Cn1ncc(NC(=O)c2csc(-c3n[nH]c4c3CCC(C)(C)C4)n2)c1[C@@H]1CC[C@@H](N)[C@H](F)CO1 [Example 373, N-(5-((2S,5R,6S)-5-amino-6-fluorooxepan-2-yl)-1-methyl-1H-pyrazol-4-yl)-2-(6,6-dimethyl-4,5,6,7-tetrahydro-1H-indazol-3-yl)thiazole-4-carboxamide]
IC50 (BaF3 PIM1 cells; [2]): 101 nM | EC50 [1, 3]: 3400 nM | Ki (PIM1): 0.009 nM | IC50 (BaF3 parental cells; [4]): 8600 nM

C[C@@H](O)c1ccc(-c2nc(C(=O)Nc3cnn(C)c3[C@@H]3CC[C@@H](N)[C@H](F)CO3)cs2)c(F)c1F (single isomer, unassigned) [Example 366]
IC50 (BaF3 PIM1 cells; [2]): 302 nM | EC50 [1, 3]: 1700 nM | Ki (PIM1): 0.14 nM | IC50 (BaF3 parental cells; [4]): 10300 nM

Cn1ncc(NC(=O)c2nc(-c3c(F)cccc3F)sc2N)c1[C@H]1CC[C@@H](N)C(F)CO1 (stereo in doubt) [Example 148, 5-Amino-N-[5-[5-amino-6-fluoro-oxepan-2-yl]-1-methyl-pyrazol-4-yl]-2-(2,6-difluorophenyl)thiazole-4-carboxamide]
IC50 (BaF3 PIM1 cells; [2]): 1600 nM | EC50 [1, 3]: 7700 nM | Ki (PIM1): 0.079 nM | IC50 (BaF3 parental cells; [4]): 25000 nM

Cn1ncc(NC(=O)c2csc(-c3c(F)cc(C4CC4)cc3F)n2)c1[C@@H]1CC[C@@H](N)[C@H](F)CO1 [Example 358, N-(5-((2S,5R,6S)-5-amino-6-fluorooxepan-2-yl)-1-methyl-1H-pyrazol-4-yl)-2-(4-cyclopropyl-2,6-difluorophenyl)thiazole-4-carboxamide]
IC50 (BaF3 PIM1 cells; [2]): 68.2 nM | EC50 [1, 3]: 938 nM | Ki (PIM1): 0.009 nM | IC50 (BaF3 parental cells; [4]): 4100 nM

Cn1ncc(NC(=O)c2nc(-c3ccccc3C(F)(F)F)sc2N)c1[C@@H]1CC[C@@H](N)[C@H](F)CO1 [Example 323, 5-amino-N-(5-((2S,5R,6S)-5-amino-6-fluorooxepan-2-yl)-1-methyl-1H-pyrazol-4-yl)-2-(2-(trifluoromethyl)phenyl)thiazole-4-carboxamide]
IC50 (BaF3 PIM1 cells; [2]): 186 nM | EC50 [1, 3]: 10000 nM | Ki (PIM1): 0.283 nM | IC50 (BaF3 parental cells; [4]): > 25000 nM

C[C@H]1O[C@@H](c2c(NC(=O)c3nc(-c4c(F)cccc4F)sc3N)cnn2C)C[C@@H](N)[C@]1(C)O (single isomer, unassigned) [Example 345]
IC50 (BaF3 PIM1 cells; [5]): 6800 nM | EC50 [1, 3]: > 25000 nM | IC50 (BaF3 parental cells; [4]): > 25000 nM

C[C@@H]1O[C@H](c2c(NC(=O)c3ccc(F)c(-c4c(F)cccc4F)n3)cnn2C)C[C@H](N)[C@@]1(C)O [Example 344, N-(5-((2S,4S,5R,6S)-4-amino-5-hydroxy-5,6-dimethyltetrahydro-2H-pyran-2-yl)-1-methyl-1H-pyrazol-4-yl)-6-(2,6-difluorophenyl)-5-fluoropicolinamide]
IC50 (BaF3 PIM1 cells; [5]): 9000 nM | EC50 [1, 3]: 9800 nM | IC50 (BaF3 parental cells; [4]): 14000 nM

C[C@@H]1O[C@H](c2c(NC(=O)c3nc(-c4c(F)cccc4F)sc3N)cnn2C)C[C@H](N)[C@@]1(C)O [Example 346, 5-amino-N-(5-((2S,4S,5R,6S)-4-amino-5-hydroxy-5,6-dimethyltetrahydro-2H-pyran-2-yl)-1-methyl-1H-pyrazol-4-yl)-2-(2,6-difluorophenyl)thiazole-4-carboxamide]
IC50 (BaF3 PIM1 cells; [5]): 517 nM | EC50 [1, 3]: 4300 nM | IC50 (BaF3 parental cells; [4]): > 25000 nM

Cc1ccc(-c2nc(C(=O)Nc3cnn(C)c3[C@@H]3CC[C@@H](N)[C@H](F)CO3)cs2)c(F)c1 [Example 316, N-(5-((2S,5R,6S)-5-amino-6-fluorooxepan-2-yl)-1-methyl-1H-pyrazol-4-yl)-2-(2-fluoro-4-methylphenyl)thiazole-4-carboxamide]
IC50 (BaF3 PIM1 cells; [5]): 126 nM | EC50 [1, 3]: 686 nM | IC50 (BaF3 parental cells; [4]): 9300 nM
